# Tests used:
# [1] = system: PKB Ser473 phosphorylation in Rat1-myr-HA-p110 alpha cells; experiment: Reverse protein array assay, PKB Ser473 phosphorylation in Rat1-myr-p110 alpha cells; format: cell-based; conditions: 0.5 h, pAkt Ser473, 30 minutes compound incubation, read-out: p-PKB IC50
# Summary of the method: (§1)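 Compound exposure lasted 30 min in Rat1 cells bearing membrane-targeted HA-p110 isoforms, using 8 serial concentrations. Arrayed lysates, each spotted at four dilutions, gave relative fluorescence signals for phospho-Ser473 PKB.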
# [2] = system: S6 Ribosomal Protein phosphorylation Ser235/236 in TSC1 null mouse embryo fibroblast (MEF) cells; experiment: Reverse protein array assay, S6 Ribosomal Protein phosphorylation Ser235/236 in TSC1 null MEF cells; format: cell-based; conditions: 1 h, pS6 ribosomal protein Ser235/236, 60 minutes incubation, read-out: p-S6 IC50
# Summary of the method: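 TSC1−/− MEFs, seeded and held ≥20 h at 37 °C/5% CO2, were exposed to 8-step serial compound dilutions (0.02% DMSO final; DMSO vehicle control) for 60 min at 37 °C. Cells were then lysed on ice for 10 min and lysates spotted onto reverse protein array chips.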
# PI3K delta = target: T1, PI3K delta (Homo sapiens, UniProt O00329); experiment: PI3K delta kinase assay (Kinase-Glo luminescence); format: biochemical
# T1 construct: for the full-length p110-d subunit are generated and fused by overlapping PCR; p85(iSH2) fusion partner (see partner chain) (N); His tag (C); made in house; host or cells: baculovirus; Tn5 (Trichoplusia ni) or TiniPro insect cells
# Summary of the method: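 ATP 1 μM, PI 10 μg/mL, PI3Kδ construct BV1060 10 nM (final); 10 mM Tris pH 7.5, 3 mM MgCl2, 50 mM NaCl, 0.05% CHAPS, 1 mM DTT; 60 min RT; Kinase-Glo stop, luminescence.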
# [3] = system: PKB Ser473 phosphorylation in Rat1-myr-HA-p110 beta cells; experiment: Reverse protein array assay, PKB Ser473 phosphorylation in Rat1-myr-p110 beta cells; format: cell-based; conditions: 0.5 h, pAkt Ser473, 30 minutes incubation, read-out: p-PKB IC50
# Summary of the method: as §1
# T1 sequence (O00329 with tags, fused parts or gaps limits assumed): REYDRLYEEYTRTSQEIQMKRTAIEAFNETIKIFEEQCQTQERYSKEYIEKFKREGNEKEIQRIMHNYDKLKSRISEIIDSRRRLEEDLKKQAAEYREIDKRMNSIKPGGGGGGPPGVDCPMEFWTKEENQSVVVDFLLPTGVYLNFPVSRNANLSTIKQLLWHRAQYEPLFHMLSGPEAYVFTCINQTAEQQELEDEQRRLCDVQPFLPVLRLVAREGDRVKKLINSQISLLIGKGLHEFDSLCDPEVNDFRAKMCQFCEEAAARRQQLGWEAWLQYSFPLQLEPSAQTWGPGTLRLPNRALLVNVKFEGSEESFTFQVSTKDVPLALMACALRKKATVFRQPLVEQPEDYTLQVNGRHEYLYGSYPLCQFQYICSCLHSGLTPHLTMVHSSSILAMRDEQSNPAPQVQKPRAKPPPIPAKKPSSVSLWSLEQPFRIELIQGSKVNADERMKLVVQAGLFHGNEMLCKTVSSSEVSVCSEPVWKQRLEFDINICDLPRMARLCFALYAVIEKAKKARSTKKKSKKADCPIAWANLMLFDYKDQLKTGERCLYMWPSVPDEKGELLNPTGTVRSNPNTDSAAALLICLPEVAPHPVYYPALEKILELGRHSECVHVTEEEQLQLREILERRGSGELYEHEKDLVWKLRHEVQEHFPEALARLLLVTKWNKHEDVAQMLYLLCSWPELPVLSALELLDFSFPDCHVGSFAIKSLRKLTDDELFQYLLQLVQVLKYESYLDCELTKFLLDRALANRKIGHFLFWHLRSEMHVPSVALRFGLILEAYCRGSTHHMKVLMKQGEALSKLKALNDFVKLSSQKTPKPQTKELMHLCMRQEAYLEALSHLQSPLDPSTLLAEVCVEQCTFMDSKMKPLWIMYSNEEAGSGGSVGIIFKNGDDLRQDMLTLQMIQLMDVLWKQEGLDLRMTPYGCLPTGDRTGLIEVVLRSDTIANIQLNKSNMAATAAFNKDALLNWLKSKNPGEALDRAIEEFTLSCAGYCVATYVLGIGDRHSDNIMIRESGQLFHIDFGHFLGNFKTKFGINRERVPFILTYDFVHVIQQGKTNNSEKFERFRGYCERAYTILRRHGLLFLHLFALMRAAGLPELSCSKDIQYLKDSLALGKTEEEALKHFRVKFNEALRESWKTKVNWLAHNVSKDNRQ
IC50 [1],IC50 (PI3K delta),IC50 [3],SMILES,IC50 [2]
0.024 µM,0.008 µM,0.028 µM,"Cc1ncc(-c2ccc3ncc4c(c3c2)n(-c2cn(C)nc2C)c(=O)n4C)cc1N [Example 88.2, 8-(5-Amino-6-methyl-pyridin-3-yl)-1-(1,3-dimethyl-1H-pyrazol-4-yl)-3-methyl-1,3-dihydro-imidazo[4,5-c]quinolin-2-one]",0.007 µM
0.02 µM,0.014 µM,0.119 µM,"CNc1ncc(-c2ccc3ncc4c(c3c2)n(-c2cn(C(C)C)nc2C)c(=O)n4C)cc1Cl [Example 146.3, 8-(5-Chloro-6-methylamino-pyridin-3-yl)-1-(1-isopropyl-3-methyl-1H-pyrazol-4-yl)-3-methyl-1,3-dihydro-imidazo[4,5-c]quinolin-2-one]",0.003 µM
0.012 µM,< 0.003 µM,0.019 µM,"COCc1cc(-c2ccc3ncc4c(c3c2)n(-c2cn(C)nc2Cl)c(=O)n4C)cnc1OC [Example 201, 1-(3-Chloro-1-methyl-1H-pyrazol-4-yl)-8-(6-methoxy-5-methoxymethyl-pyridin-3-yl)-3-methyl-1,3-dihydro-imidazo[4,5-c]quinolin-2-one]",0.001 µM
0.469 µM,0.016 µM,0.516 µM,"COc1ncc(-c2ccc3ncc4c(c3c2)n(-c2cn(C)nc2C)c(=O)n4C)cc1N(C)C(C)=O [Example 62, N-{5-[1-(1,3-Dimethyl-1H-pyrazol-4-yl)-3-methyl-2-oxo-2,3-dihydro-1H-imidazo[4,5-c]quinolin-8-yl]-2-methoxy-pyridin-3-yl}-N-methyl-acetamide]",0.098 µM
0.006 µM,0.033 µM,0.011 µM,"Cc1nn(C)cc1-n1c(=O)n(C)c2cnc3ccc(-c4cnc(N)c(F)c4)cc3c21 [Example 142.2, 8-(6-Amino-5-fluoro-pyridin-3-yl)-1-(1,3-dimethyl-1H-pyrazol-4-yl)-3-methyl-1,3-dihydro-imidazo[4,5-c]quinolin-2-one]",< 0.0005 µM
0.044 µM,0.054 µM,0.141 µM,"COc1ccc(-c2ccc3ncc4c(c3c2)n(-c2cnn(C)c2C)c(=O)n4C)cn1 [Example 2.9, 1-(1,5-Dimethyl-1H-pyrazol-4-yl)-8-(6-methoxy-pyridin-3-yl)-3-methyl-1,3-dihydro-imidazo[4,5-c]quinolin-2-one]",0.027 µM
0.033 µM,0.017 µM,0.085 µM,"CCNc1cc(-c2ccc3ncc4c(c3c2)n(-c2c(C)nn(CCOC)c2C)c(=O)n4C)cnc1C [Example 87.4, 8-(5-Ethylamino-6-methyl-pyridin-3-yl)-1-[1-(2-methoxy-ethyl)-3,5-dimethyl-1H-pyrazol-4-yl]-3-methyl-1,3-dihydro-imidazo[4,5-c]quinolin-2-one]",0.041 µM
< 0.005 µM,0.028 µM,0.01 µM,"Cc1nn(C)cc1-n1c(=O)n(C)c2cnc3ccc(-c4cnc(Cl)c(N)c4)cc3c21 [Example 152.2, 8-(5-Amino-6-chloro-pyridin-3-yl)-1-(1,3-dimethyl-1H-pyrazol-4-yl)-3-methyl-1,3-dihydro-imidazo[4,5-c]quinolin-2-one]",0.001 µM
0.097 µM,0.01 µM,0.115 µM,"Cc1noc(C)c1-n1c(=O)n(C)c2cnc3ccc(-c4cnc(N)c(C(F)(F)F)c4)cc3c21 [Example 25.5, 8-(6-Amino-5-trifluoromethyl-pyridin-3-yl)-1-(3,5-dimethyl-isoxazol-4-yl)-3-methyl-1,3-dihydro-imidazo[4,5-c]quinolin-2-one]",0.008 µM
0.036 µM,0.441 µM,0.066 µM,"Cc1nn(C)cc1-n1c(=O)n(C)c2cnc3ccc(-c4ccc(OCC5CC5)nc4)cc3c21 [Example 42, 8-(6-Cyclopropylmethoxy-pyridin-3-yl)-1-(1,3-dimethyl-1H-pyrazol-4-yl)-3-methyl-1,3-dihydro-imidazo[4,5-c]quinolin-2-one]",0.003 µM
0.005 µM,0.024 µM,0.006 µM,"Cc1nn(C)cc1-n1c(=O)n(C)c2cnc3ccc(-c4cnc5[nH]ccc5c4)cc3c21 [Example 36, 1-(1,3-dimethyl-1H-pyrazol-4-yl)-3-methyl-8-(1H-pyrrolo[2,3-b]pyridin-5-yl)-1,3-dihydro-imidazo[4,5-c]quinolin-2-one]",< 0.0005 µM
< 0.005 µM,0.004 µM,0.007 µM,"Cc1nn(C(C)C)cc1-n1c(=O)n(C)c2cnc3ccc(-c4cnc(N)c(C(F)(F)F)c4)cc3c21 [Example 25.4, 8-(6-Amino-5-trifluoromethyl-pyridin-3-yl)-1-(1-isopropyl-3-methyl-1H-pyrazol-4-yl)-3-methyl-1,3-dihydro-imidazo[4,5-c]quinolin-2-one]",< 0.0005 µM
0.009 µM,0.012 µM,0.016 µM,"Cc1nn(C)cc1-n1c(=O)n(C)c2cnc3ccc(-c4cncc(NC(C)C)c4)cc3c21 [Example 177.1, 1-(1,3-Dimethyl-1H-pyrazol-4-yl)-8-(5-isopropylamino-pyridin-3-yl)-3-methyl-1,3-dihydro-imidazo[4,5-c]quinolin-2-one]",0.002 µM
0.015 µM,0.034 µM,0.023 µM,"CCOc1ccc(-c2ccc3ncc4c(c3c2)n(-c2cn(C)nc2Cl)c(=O)n4C)cn1 [Example 3.8, 1-(3-Chloro-1-methyl-1H-pyrazol-4-yl)-8-(6-ethoxy-pyridin-3-yl)-3-methyl-1,3-dihydro-imidazo[4,5-c]quinolin-2-one]",0.011 µM
0.02 µM,0.005 µM,0.025 µM,"COCc1cc(-c2ccc3ncc4c(c3c2)n(-c2cn(C(C)C)nc2C)c(=O)n4C)cnc1N [Example 168.1, 8-(6-Amino-5-methoxymethyl-pyridin-3-yl)-1-(1-isopropyl-3-methyl-1H-pyrazol-4-yl)-3-methyl-1,3-dihydro-imidazo[4,5-c]quinolin-2-one]",0.001 µM
< 0.005 µM,0.014 µM,0.022 µM,"CCNc1cncc(-c2ccc3ncc4c(c3c2)n(-c2cn(C)nc2C)c(=O)n4C)c1 [Example 122, 1-(1,3-Dimethyl-1H-pyrazol-4-yl)-8-(5-ethylamino-pyridin-3-yl)-3-methyl-1,3-dihydro-imidazo[4,5-c]quinolin-2-one]",< 0.0005 µM
0.227 µM,0.01 µM,0.294 µM,"C=CCn1c(=O)n(-c2cn(C)nc2C)c2c3cc(-c4cncc(N)c4)ccc3ncc21 [Example 246, 3-Allyl-8-(5-amino-pyridin-3-yl)-1-(1,3-dimethyl-1H-pyrazol-4-yl)-1,3-dihydro-imidazo[4,5-c]quinolin-2-one]",0.041 µM
0.012 µM,0.199 µM,0.037 µM,"Cc1nn(C)cc1-n1c(=O)n(C)c2cnc3ccc(-c4ccc(N5CCN(C)CC5)nc4)cc3c21 [Example 96, 1-(1,3-Dimethyl-1H-pyrazol-4-yl)-3-methyl-8-[6-(4-methyl-piperazin-1-yl)-pyridin-3-yl]-1,3-dihydro-imidazo[4,5-c]quinolin-2-one]",0.007 µM
0.038 µM,0.007 µM,0.086 µM,"CCOCc1cc(-c2ccc3ncc4c(c3c2)n(-c2cn(CC)nc2C)c(=O)n4C)cnc1N [Example 166.2, 8-(6-Amino-5-ethoxymethyl-pyridin-3-yl)-1-(1-ethyl-3-methyl-1H-pyrazol-4-yl)-3-methyl-1,3-dihydro-imidazo[4,5-c]quinolin-2-one]",0.00226 µM
0.159 µM,0.336 µM,0.226 µM,"Cc1nn(C)cc1-n1c(=O)n(C)c2cnc3ccc(-c4cncnc4)cc3c21 [Example 26, 1-(1,3-Dimethyl-1H-pyrazol-4-yl)-3-methyl-8-pyrimidin-5-yl-1,3-dihydro-imidazo[4,5-c]quinolin-2-one]",0.005 µM
0.168 µM,0.009 µM,0.148 µM,"Cc1nn(C)cc1-n1c(=O)n(C)c2cnc3ccc(-c4cncc(S(C)(=O)=O)c4)cc3c21 [Example 22, 1-(1,3-Dimethyl-1H-pyrazol-4-yl)-8-(5-methanesulfonyl-pyridin-3-yl)-3-methyl-1,3-dihydro-imidazo[4,5-c]quinolin-2-one]",0.027 µM

SMILES,IC50 [1],IC50 (PI3K delta),IC50 [3],IC50 [2]
"CNc1ncc(-c2ccc3ncc4c(c3c2)n(-c2cn(C(C)C)nc2C)c(=O)n4C)cc1CO [Example 171, 8-(5-Hydroxymethyl-6-methylamino-pyridin-3-yl)-1-(1-isopropyl-3-methyl-1H-pyrazol-4-yl)-3-methyl-1,3-dihydro-imidazo[4,5-c]quinolin-2-one]",0.009 µM,0.014 µM,< 0.005 µM,0.003 µM
